These results are taken from patent US20260022142A1, “MACROCYCLIC IMMUNOMODULATORS” (Bristol-Myers Squibb Company, priority 2022, published 2026).

SMILES strings stand for the structures. Bridge positions count the residues as written; N and C are the ends. Square brackets hold non-standard residues; d marks the D form. Peptide text beside a SMILES is read from it. * marks the point of attachment. ξ: configuration not given here. Phe(4-COOH) = N[C@@H](Cc1ccc(C(=O)O)cc1)C(=O)O; Bip = N[C@@H](Cc1ccc(-c2ccccc2)cc1)C(=O)O; hArg = N=C(N)NCCCC[C@H](N)C(=O)O; 4Pal = N[C@@H](Cc1ccncc1)C(=O)O; 3Thi = N[C@@H](Cc1ccsc1)C(=O)O; Cha = N[C@@H](CC1CCCCC1)C(=O)O; Cit = NC(=O)NCCC[C@H](N)C(=O)O; Thr(3ξ) = CC(O)[C@H](N)C(=O)O; Carboxymethyl = O=C(O)C*; Orn = NCCC[C@H](N)C(=O)O; Aun = NCCCCCCCCCCC(=O)O; Dab = NCC[C@H](N)C(=O)O; Dap = NC[C@H](N)C(=O)O; AEEA = NCCOCCOCC(=O)O

This assay deals with T1, PD-1/PD-L1 interaction (PE-labeled human PD-L1-Ig binding to Jurkat cell line over-expressing human PD-1) (Homo sapiens, UniProt Q15116).
T1 construct: expressed in transfected cells; host or cells: Jurkat
T1 sequence (Q15116 25-288): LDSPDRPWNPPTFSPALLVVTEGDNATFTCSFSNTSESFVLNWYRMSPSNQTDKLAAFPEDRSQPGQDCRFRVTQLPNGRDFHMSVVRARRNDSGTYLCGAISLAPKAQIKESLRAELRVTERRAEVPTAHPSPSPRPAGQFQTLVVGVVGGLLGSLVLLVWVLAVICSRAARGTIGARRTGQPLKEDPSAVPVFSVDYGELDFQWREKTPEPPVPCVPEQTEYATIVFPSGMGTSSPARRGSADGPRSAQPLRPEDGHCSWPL
Description: Jurkat-PD-1 Cell Binding High-Content Screening Assay (CBA). The class given is cell-based. Particulars: Jurkat cell line over-expressing human PD-1; PE-labeled PD-L1-Ig 20 nM final; read-out: Jurkat hPD1-PDL1 IC50. An outline of the steps: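 Binding of fluorescent PD-L1-Ig (20 nM final) to Jurkat-PD-1 cells was measured by automated imaging after 1 h, following a 2 h compound pre-treatment at 37° C.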
For orientation: IC50 means the midpoint of a concentration-inhibition curve. Take `CC(C)C[C@H]1NC(=O)[C@H](CCCN)NC(=O)[C@H](C(C)C)NC(=O)[C@H](Cc2ccc(-c3ccccc3)cc2)NC(=O)[C@H](C(C)C)NC(=O)[C@H](Cc2c[nH]c3ccccc23)NC(=O)[C@H](CC(=O)O)NC(=O)[C@H](Cc2ccc(OCC(=O)O)cc2)NC(=O)[C@H](Cc2ccc(OCC(=O)O)cc2)NC(=O)CSC[C@@H](C(=O)NCC(=O)NCCOCCOCC(=O)N[C@@H](CCCN)C(=O)NCCCCCCCCCCC(=O)O)NC(=O)[C@H](CCCN)NC(=O)[C@H](C(C)C)NC(=O)[C@H](CC2CCCCC2)NC(=O)[C@H](CC(N)=O)NC1=O` [Compound 3205] ({CH2CO}-Y(Carboxymethyl)Y(Carboxymethyl)DWV[Bip]V[Orn][dL]N[Cha]V[Orn]CG[AEEA][Orn][Aun]-OH; thioether N-14): the IC50 was 12.4 nM. Then `CC(C)C[C@H]1NC(=O)[C@H](CCCN)NC(=O)[C@H](C(C)C)NC(=O)[C@H](Cc2ccc(-c3ccccc3)cc2)NC(=O)[C@H](C(C)C)NC(=O)[C@H](Cc2c[nH]c3ccccc23)NC(=O)[C@H](CC(=O)O)NC(=O)[C@H](Cc2ccc(C(=O)O)cc2)NC(=O)[C@H](Cc2ccc(OCC(=O)O)cc2)NC(=O)CSC[C@@H](C(=O)NCC(=O)NCCOCCOCC(=O)N[C@@H](CCCN)C(=O)NCCCCCCCCCCC(=O)O)NC(=O)[C@H](CCCN)NC(=O)[C@H](C(C)C)NC(=O)[C@H](CC2CCCCC2)NC(=O)[C@H](CC(N)=O)NC1=O` [Compound 3206] ({CH2CO}-Y(Carboxymethyl)[Phe(4-COOH)]DWV[Bip]V[Orn][dL]N[Cha]V[Orn]CG[AEEA][Orn][Aun]-OH; thioether N-14), with 24.5 nM. For `CC(C)C[C@H]1NC(=O)[C@H](CCCN)NC(=O)[C@H](C(C)C)NC(=O)[C@H](Cc2ccc(-c3ccccc3)cc2)NC(=O)[C@H](C(C)C)NC(=O)[C@H](Cc2c[nH]c3ccccc23)NC(=O)[C@H](CC(=O)O)NC(=O)[C@H](Cc2ccc(OCC(=O)O)cc2)NC(=O)[C@H](Cc2ccncc2)NC(=O)CSC[C@@H](C(=O)NCC(=O)NCCOCCOCC(=O)N[C@@H](CCCN)C(=O)NCCCCCCCCCCC(=O)O)NC(=O)[C@H](CCCN)NC(=O)[C@H](C(C)C)NC(=O)[C@H](CC2CCCCC2)NC(=O)[C@H](CC(N)=O)NC1=O` [Compound 3207] ({CH2CO}-[4Pal]Y(Carboxymethyl)DWV[Bip]V[Orn][dL]N[Cha]V[Orn]CG[AEEA][Orn][Aun]-OH; thioether N-14) the value was 17.4 nM.

As for `CC(C)C[C@H]1NC(=O)[C@H](CCCNC(N)=O)NC(=O)[C@H](C(C)C)NC(=O)[C@H](Cc2ccc(-c3ccccc3)cc2)NC(=O)[C@H](C(C)C)NC(=O)[C@H](Cc2c[nH]c3ccccc23)NC(=O)[C@H](CC(=O)O)NC(=O)[C@H](Cc2ccc(OCC(=O)O)cc2)NC(=O)[C@H](Cc2ccsc2)NC(=O)CSC[C@@H](C(=O)NCCOCCOCC(=O)N[C@@H](CCCN)C(=O)NCCCCCCCCCCC(=O)O)NC(=O)[C@H](C(C)O)NC(=O)[C@H](C(C)C)NC(=O)[C@H](CC2CCCCC2)NC(=O)[C@H](CCN)NC1=O` (stereo partly drawn) [Compound 3208] ({CH2CO}-[3Thi]Y(Carboxymethyl)DWV[Bip]V[Cit][dL][Dab][Cha]V[Thr(3ξ)]C[AEEA][Orn][Aun]-OH; thioether N-14), the 50% inhibitory concentration (IC50) was found to be 603 nM. Then `CC(C)C[C@H]1NC(=O)[C@H](CN)NC(=O)[C@H](C(C)C)NC(=O)[C@H](Cc2ccc(-c3ccccc3)cc2)NC(=O)[C@H](C(C)C)NC(=O)[C@H](Cc2c[nH]c3ccccc23)NC(=O)[C@H](CC(=O)O)NC(=O)[C@H](Cc2ccc(OCC(=O)O)cc2)NC(=O)[C@H](Cc2ccsc2)NC(=O)CSC[C@@H](C(=O)NCCOCCOCC(=O)N[C@@H](CCCN)C(=O)NCCCCCCCCCCC(=O)O)NC(=O)[C@H](C(C)O)NC(=O)[C@H](C(C)C)NC(=O)[C@H](CC2CCCCC2)NC(=O)[C@H](CCN)NC1=O` (stereo partly drawn) [Compound 3209] ({CH2CO}-[3Thi]Y(Carboxymethyl)DWV[Bip]V[Dap][dL][Dab][Cha]V[Thr(3ξ)]C[AEEA][Orn][Aun]-OH; thioether N-14), with 17.1 nM. As for `CC(C)C[C@H]1NC(=O)[C@H](CCN)NC(=O)[C@H](C(C)C)NC(=O)[C@H](Cc2ccc(-c3ccccc3)cc2)NC(=O)[C@H](C(C)C)NC(=O)[C@H](Cc2c[nH]c3ccccc23)NC(=O)[C@H](CC(=O)O)NC(=O)[C@H](Cc2ccc(OCC(=O)O)cc2)NC(=O)[C@H](Cc2ccsc2)NC(=O)CSC[C@@H](C(=O)NCCOCCOCC(=O)N[C@@H](CCCN)C(=O)NCCCCCCCCCCC(=O)O)NC(=O)[C@H](C(C)O)NC(=O)[C@H](C(C)C)NC(=O)[C@H](CC2CCCCC2)NC(=O)[C@H](CCN)NC1=O` (stereo partly drawn) [Compound 3210] ({CH2CO}-[3Thi]Y(Carboxymethyl)DWV[Bip]V[Dab][dL][Dab][Cha]V[Thr(3ξ)]C[AEEA][Orn][Aun]-OH; thioether N-14), the half-inhibitory concentration (IC50) is 8 nM. As to `CC(C)C[C@H]1NC(=O)[C@H](CCCN)NC(=O)[C@H](C(C)C)NC(=O)[C@H](Cc2ccc(-c3ccccc3)cc2)NC(=O)[C@H](C(C)C)NC(=O)[C@H](Cc2c[nH]c3ccccc23)NC(=O)[C@H](CC(=O)O)NC(=O)[C@H](Cc2ccc(OCC(=O)O)cc2)NC(=O)[C@H](Cc2ccsc2)NC(=O)CSC[C@@H](C(=O)NCCOCCOCC(=O)N[C@@H](CCCN)C(=O)NCCCCCCCCCCC(=O)O)NC(=O)[C@H](C(C)O)NC(=O)[C@H](C(C)C)NC(=O)[C@H](CC2CCCCC2)NC(=O)[C@H](CCN)NC1=O` (stereo partly drawn) [Compound 3211] ({CH2CO}-[3Thi]Y(Carboxymethyl)DWV[Bip]V[Orn][dL][Dab][Cha]V[Thr(3ξ)]C[AEEA][Orn][Aun]-OH; thioether N-14), the IC50 was found to be 18.3 nM.

Consider `CC(C)C[C@H]1NC(=O)[C@H](CCN)NC(=O)[C@H](C(C)C)NC(=O)[C@H](Cc2ccc(-c3ccccc3)cc2)NC(=O)[C@H](C(C)C)NC(=O)[C@H](Cc2c[nH]c3ccccc23)NC(=O)[C@H](CC(=O)O)NC(=O)[C@H](Cc2ccc(OCC(=O)O)cc2)NC(=O)[C@H](CCCCNC(=N)N)NC(=O)CSC[C@@H](C(=O)NCCOCCOCC(=O)N[C@@H](CCCN)C(=O)NCCCCCCCCCCC(=O)O)NC(=O)[C@H](C(C)O)NC(=O)[C@H](C(C)C)NC(=O)[C@H](CC2CCCCC2)NC(=O)[C@H](CCN)NC1=O` (stereo partly drawn) [Compound 3212] ({CH2CO}-[hArg]Y(Carboxymethyl)DWV[Bip]V[Dab][dL][Dab][Cha]V[Thr(3ξ)]C[AEEA][Orn][Aun]-OH; thioether N-14), for which the half-maximal inhibitory concentration (IC50) was determined as 13.7 nM. For `CC(C)C[C@H]1NC(=O)[C@H](CCCN)NC(=O)[C@H](C(C)C)NC(=O)[C@H](Cc2ccc(-c3ccccc3)cc2)NC(=O)[C@H](C(C)C)NC(=O)[C@H](Cc2c[nH]c3ccccc23)NC(=O)[C@H](CC(=O)O)NC(=O)[C@H](Cc2ccc(OCC(=O)O)cc2)NC(=O)[C@H](CCCCNC(=N)N)NC(=O)CSC[C@@H](C(=O)N[C@@H](CCN)C(=O)NCCOCCOCC(=O)NCCCCCCCCCCC(=O)O)NC(=O)[C@H](CCCNC(N)=O)NC(=O)[C@H](C(C)C)NC(=O)[C@H](CC2CCCCC2)NC(=O)[C@H](CC(N)=O)NC1=O` [Compound 3213] ({CH2CO}-[hArg]Y(Carboxymethyl)DWV[Bip]V[Orn][dL]N[Cha]V[Cit]C[Dab][AEEA][Aun]-OH; thioether N-14) the value was 13.5 nM.
